{
  "source": "ChEMBL document CHEMBL4828715",
  "about": "“Discovery, Structure-Activity Relationships, and In Vivo Evaluation of Novel Aryl Amides as Brain Penetrant Adaptor Protein 2-Associated Kinase 1 (AAK1) Inhibitors for the Treatment of Neuropathic Pain” (J Med Chem, 2021)",
  "key": {"[1]": {"assay": "Metabolic stability in rat liver microsomes assessed as parent compound remaining at 0.5 uM incubated for 10 mins in presence of NADPH by LC-MS/MS analysis", "assay_type": "ADME, Microsome", "details": "read-out: Stability"}, "[2]": {"assay": "Permeability of the compound at pH 7.4 incubated for 4 hrs by PAMPA-based UV spectrophotometry", "assay_type": "ADME", "details": "PAMPA, pH 7.4, read-out: permeability"}, "[3]": {"assay": "Protein binding in human plasma assessed as unbound fraction at 10 uM measured after 5 hrs by equilibrium dialysis method"}, "[4]": {"assay": "Protein binding in mouse plasma assessed as unbound fraction at 10 uM measured after 5 hrs by equilibrium dialysis method"}, "[5]": {"assay": "Drug concentration in C57BL6 mouse at 10 ml/kg, sc measured after 2 hrs by LC-MS/MS analysis", "assay_type": "ADME, organism-based", "details": "plasma"}, "[6]": {"assay": "Drug concentration in C57BL6 mouse brain at 10 ml/kg, sc measured after 2 hrs by LC-MS/MS analysis", "assay_type": "ADME, organism-based", "details": "read-out: Ct"}, "[7]": {"assay": "Ratio of drug concentration in brain to plasma in C57BL6 mouse at 30 mg/kg, sc", "assay_type": "ADME, organism-based", "details": "read-out: BPR"}, "[8]": {"target": "T1, MAP kinase-interacting serine/threonine-protein kinase 2 (Homo sapiens, UniProt Q9HBH9)", "assay": "Inhibition of wild-type human partial length MKNK2 (G63 to S388 residues) expressed in mammalian expression system assessed as residual binding level at 1 uM by Kinomescan method relative to control"}, "[9]": {"target": "SRSF protein kinase 3 (Homo sapiens) (UniProt Q9UPE1)", "sequence (Q9UPE1 whole entry, the tested form may be a part)": "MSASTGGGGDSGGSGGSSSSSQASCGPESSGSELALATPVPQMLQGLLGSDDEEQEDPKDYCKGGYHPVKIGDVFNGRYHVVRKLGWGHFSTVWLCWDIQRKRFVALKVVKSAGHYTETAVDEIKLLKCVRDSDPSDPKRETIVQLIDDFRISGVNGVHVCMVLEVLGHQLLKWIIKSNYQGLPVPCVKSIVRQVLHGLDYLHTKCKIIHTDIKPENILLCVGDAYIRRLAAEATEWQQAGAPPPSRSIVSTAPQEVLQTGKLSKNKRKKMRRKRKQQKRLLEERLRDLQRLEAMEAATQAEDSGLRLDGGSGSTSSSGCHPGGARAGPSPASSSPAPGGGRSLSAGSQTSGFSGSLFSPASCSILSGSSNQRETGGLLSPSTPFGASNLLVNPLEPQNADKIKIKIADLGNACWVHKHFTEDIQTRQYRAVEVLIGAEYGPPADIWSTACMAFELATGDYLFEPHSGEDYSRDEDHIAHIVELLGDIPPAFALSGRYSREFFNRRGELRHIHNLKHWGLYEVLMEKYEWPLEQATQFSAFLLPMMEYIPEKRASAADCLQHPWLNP", "assay": "Inhibition of wild-type human partial length SRPK3 (P41 to P567 residues) expressed in bacterial expression system assessed as residual binding level at 1 uM by Kinomescan method relative to control"}, "[10]": {"target": "BMP-2-inducible protein kinase (Homo sapiens, UniProt Q9NSY1)", "assay": "Inhibition of wild-type human partial length BIKE (S34 to N329 residues) expressed in bacterial expression system by Kinomescan method"}, "[11]": {"target": "Dual specificity protein kinase CLK4 (Homo sapiens, UniProt Q9HAZ1)", "sequence (Q9HAZ1 whole entry, the tested form may be a part)": "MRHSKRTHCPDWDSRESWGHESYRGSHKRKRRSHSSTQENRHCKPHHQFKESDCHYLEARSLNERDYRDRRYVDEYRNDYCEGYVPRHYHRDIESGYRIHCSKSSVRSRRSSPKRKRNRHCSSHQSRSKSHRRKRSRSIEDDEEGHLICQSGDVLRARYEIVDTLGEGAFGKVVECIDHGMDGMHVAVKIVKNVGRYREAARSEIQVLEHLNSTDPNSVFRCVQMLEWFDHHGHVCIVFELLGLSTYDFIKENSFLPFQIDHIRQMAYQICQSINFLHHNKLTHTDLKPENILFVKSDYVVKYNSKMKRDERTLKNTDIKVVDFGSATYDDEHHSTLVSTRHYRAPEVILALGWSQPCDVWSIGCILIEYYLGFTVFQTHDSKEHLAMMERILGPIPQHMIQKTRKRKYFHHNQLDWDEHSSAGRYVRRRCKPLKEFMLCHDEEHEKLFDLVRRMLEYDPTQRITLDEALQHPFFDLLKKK", "assay": "Inhibition of wild-type human partial length CLK4 (R135 to K481 residues) expressed in bacterial expression system by Kinomescan method"}, "[12]": {"target": "Cyclin-G-associated kinase (Homo sapiens, UniProt O14976)", "sequence (O14976 whole entry, the tested form may be a part)": "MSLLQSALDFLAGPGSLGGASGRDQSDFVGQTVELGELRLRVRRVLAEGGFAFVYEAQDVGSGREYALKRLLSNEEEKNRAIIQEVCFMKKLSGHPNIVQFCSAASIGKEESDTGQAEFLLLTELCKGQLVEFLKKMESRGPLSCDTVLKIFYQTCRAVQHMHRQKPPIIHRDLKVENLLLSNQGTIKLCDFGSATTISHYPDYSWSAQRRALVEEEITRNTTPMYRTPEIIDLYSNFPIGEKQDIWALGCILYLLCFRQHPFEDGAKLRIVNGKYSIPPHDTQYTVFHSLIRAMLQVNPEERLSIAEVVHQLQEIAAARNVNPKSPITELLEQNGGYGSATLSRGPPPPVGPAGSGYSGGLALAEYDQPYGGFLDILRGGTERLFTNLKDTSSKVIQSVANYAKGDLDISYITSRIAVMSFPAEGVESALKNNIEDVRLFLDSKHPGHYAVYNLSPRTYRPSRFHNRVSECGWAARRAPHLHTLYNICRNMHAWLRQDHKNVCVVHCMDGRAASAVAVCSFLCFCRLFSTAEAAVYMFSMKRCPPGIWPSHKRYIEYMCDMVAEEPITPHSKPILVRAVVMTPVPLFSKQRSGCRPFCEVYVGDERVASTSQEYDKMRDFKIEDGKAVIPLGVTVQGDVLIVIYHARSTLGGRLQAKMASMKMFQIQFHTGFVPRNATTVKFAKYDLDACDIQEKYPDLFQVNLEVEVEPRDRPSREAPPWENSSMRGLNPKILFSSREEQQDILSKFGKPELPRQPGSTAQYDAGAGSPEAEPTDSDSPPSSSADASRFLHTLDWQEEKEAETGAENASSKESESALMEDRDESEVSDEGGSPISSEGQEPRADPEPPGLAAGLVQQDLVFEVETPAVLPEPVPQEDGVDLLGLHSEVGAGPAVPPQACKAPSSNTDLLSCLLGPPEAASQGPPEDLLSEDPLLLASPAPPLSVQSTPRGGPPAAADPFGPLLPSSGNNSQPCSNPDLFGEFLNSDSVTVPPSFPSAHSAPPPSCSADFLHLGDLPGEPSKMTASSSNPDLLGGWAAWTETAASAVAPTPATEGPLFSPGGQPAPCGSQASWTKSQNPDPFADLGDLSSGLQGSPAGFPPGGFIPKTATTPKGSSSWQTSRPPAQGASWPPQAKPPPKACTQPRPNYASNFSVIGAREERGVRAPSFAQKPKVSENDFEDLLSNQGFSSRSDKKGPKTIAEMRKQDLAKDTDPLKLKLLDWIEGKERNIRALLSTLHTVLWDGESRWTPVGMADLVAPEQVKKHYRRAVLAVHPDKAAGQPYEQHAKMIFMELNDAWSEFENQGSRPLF", "assay": "Inhibition of wild-type human partial length GAK (G13 to Y338 residues) expressed in bacterial expression system by Kinomescan method"}, "[13]": {"target": "MAP kinase-interacting serine/threonine-protein kinase 1 (Homo sapiens, UniProt Q9BUB5)", "sequence (Q9BUB5 whole entry, the tested form may be a part)": "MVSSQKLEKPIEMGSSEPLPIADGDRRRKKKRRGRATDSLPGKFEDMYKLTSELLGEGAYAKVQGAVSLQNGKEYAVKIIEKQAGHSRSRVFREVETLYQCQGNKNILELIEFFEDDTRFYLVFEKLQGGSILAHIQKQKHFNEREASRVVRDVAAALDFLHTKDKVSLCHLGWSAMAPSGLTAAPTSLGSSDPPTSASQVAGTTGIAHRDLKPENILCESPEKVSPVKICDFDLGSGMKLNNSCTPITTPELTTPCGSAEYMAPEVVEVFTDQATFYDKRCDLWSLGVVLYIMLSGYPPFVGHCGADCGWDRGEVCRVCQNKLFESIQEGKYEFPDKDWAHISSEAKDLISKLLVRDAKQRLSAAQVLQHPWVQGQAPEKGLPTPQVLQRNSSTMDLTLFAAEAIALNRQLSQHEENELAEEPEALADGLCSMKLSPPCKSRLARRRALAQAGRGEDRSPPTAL", "assay": "Inhibition of wild-type human full length MKNK1 (M1 to L424 residues) expressed in mammalian expression system by Kinomescan method"}, "[14]": {"target": "T1, MAP kinase-interacting serine/threonine-protein kinase 2", "assay": "Inhibition of wild-type human partial length MKNK2 (G63 to S388 residues) expressed in mammalian expression system by Kinomescan method"}, "[15]": {"assay": "Inhibition of PKA (unknown origin)", "set-up": "species or system Homo sapiens"}, "Mu-type opioid receptor": {"target": "Mu-type opioid receptor (Homo sapiens, UniProt P35372)", "sequence (P35372 whole entry)": "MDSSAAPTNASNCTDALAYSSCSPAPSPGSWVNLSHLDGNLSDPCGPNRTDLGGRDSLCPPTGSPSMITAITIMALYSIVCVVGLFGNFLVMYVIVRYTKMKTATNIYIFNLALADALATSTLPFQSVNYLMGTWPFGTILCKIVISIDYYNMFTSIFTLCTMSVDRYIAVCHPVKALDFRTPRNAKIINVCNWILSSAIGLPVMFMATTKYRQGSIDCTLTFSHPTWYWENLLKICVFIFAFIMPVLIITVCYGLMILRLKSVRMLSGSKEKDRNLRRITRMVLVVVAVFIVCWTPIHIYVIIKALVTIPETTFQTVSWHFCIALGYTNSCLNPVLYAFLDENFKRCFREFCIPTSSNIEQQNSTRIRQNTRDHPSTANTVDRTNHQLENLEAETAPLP", "assay": "Inhibition of mu opioid receptor (unknown origin)"}, "[16]": {"target": "Sodium-dependent noradrenaline transporter (Homo sapiens, UniProt P23975)", "sequence (P23975 whole entry)": "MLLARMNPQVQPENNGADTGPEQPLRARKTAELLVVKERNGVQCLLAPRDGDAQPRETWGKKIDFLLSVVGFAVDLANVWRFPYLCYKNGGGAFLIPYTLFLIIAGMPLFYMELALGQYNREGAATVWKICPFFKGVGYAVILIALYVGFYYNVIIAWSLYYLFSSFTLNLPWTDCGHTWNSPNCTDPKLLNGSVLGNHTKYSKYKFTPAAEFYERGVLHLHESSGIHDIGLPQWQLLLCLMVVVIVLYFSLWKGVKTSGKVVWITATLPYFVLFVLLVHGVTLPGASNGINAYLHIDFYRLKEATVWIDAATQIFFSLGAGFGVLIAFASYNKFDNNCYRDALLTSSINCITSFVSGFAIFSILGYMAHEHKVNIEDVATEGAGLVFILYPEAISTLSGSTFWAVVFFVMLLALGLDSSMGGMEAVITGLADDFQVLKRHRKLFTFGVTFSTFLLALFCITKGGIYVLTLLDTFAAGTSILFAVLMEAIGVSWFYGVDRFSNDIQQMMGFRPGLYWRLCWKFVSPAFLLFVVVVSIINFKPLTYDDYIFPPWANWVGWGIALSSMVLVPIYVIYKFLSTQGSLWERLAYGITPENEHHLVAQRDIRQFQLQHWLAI", "assay": "Inhibition of NET (unknown origin)"}, "[17]": {"target": "AP2-associated protein kinase 1 (Mus musculus) (UniProt Q3UHJ0)", "sequence (Q3UHJ0 whole entry, looked up)": "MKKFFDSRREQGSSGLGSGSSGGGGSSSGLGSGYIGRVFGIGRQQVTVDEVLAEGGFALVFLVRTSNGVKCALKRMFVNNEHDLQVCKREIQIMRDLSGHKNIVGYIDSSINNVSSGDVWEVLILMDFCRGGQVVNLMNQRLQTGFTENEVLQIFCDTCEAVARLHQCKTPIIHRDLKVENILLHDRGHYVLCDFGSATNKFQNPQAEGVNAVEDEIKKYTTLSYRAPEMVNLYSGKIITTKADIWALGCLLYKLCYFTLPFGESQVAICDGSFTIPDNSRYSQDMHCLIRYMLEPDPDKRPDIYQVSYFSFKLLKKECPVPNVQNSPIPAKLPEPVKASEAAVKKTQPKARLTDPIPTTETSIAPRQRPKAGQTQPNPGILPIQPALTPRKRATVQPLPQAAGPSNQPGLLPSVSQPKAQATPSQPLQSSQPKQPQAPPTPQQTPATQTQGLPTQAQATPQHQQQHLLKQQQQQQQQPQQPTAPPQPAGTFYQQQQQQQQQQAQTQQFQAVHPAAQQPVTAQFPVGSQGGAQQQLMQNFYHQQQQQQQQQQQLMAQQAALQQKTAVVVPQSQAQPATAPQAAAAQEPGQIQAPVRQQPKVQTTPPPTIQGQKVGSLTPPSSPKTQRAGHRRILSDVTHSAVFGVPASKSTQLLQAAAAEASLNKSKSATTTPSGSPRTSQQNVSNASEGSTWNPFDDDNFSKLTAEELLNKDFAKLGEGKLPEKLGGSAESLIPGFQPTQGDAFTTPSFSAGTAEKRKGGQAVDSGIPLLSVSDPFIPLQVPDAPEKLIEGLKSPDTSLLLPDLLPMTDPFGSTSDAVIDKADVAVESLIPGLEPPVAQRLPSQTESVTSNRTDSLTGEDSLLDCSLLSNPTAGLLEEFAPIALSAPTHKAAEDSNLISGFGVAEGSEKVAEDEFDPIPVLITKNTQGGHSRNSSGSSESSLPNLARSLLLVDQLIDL", "assay": "In vivo inhibition of AAK1 in C57BL6 mouse assessed as suppression of mu2 phosphorylation in brain lysate at 60 mg/kg, sc measured after 1 hr by Western blot analysis relative to control", "assay_type": "functional, organism-based"}, "[18]": {"target": "AP2-associated protein kinase 1 (Mus musculus) (UniProt Q3UHJ0)", "assay": "In vivo inhibition of AAK1 in C57BL6 mouse assessed as suppression of mu2 phosphorylation in brain lysate at 30 mg/kg, sc measured after 2 hrs by Western blot analysis", "assay_type": "functional, organism-based"}, "[19]": {"assay": "Drug concentration in plasma of C57BL6 mouse at 1 mg/kg, sc", "assay_type": "ADME, organism-based", "details": "in vivo"}, "[20]": {"assay": "Drug concentration in plasma of C57BL6 mouse at 3 mg/kg, sc", "assay_type": "ADME, organism-based", "details": "in vivo"}, "[21]": {"assay": "Drug concentration in plasma of C57BL6 mouse at 10 mg/kg, sc", "assay_type": "ADME, organism-based", "details": "in vivo"}, "[22]": {"assay": "Drug concentration in plasma of C57BL6 mouse at 30 mg/kg, sc", "assay_type": "ADME, organism-based", "details": "in vivo"}, "Mus musculus [23]": {"test_system": "Mus musculus", "assay": "Antinociceptive activity against formalin-induced nociceptive behavior in C57BL6 mouse assessed as reduction in phase 2 hind paw flinching at 30 mg/kg, sc administered 60 mins prior to formalin challenge by formalin test", "assay_type": "functional, organism-based"}, "Mus musculus [24]": {"test_system": "Mus musculus", "assay": "Antinociceptive activity against formalin-induced nociceptive behavior in C57BL6 mouse assessed as reduction in phase 2 hind paw flinching at 10 mg/kg, sc administered 60 mins prior to formalin challenge by formalin test", "assay_type": "functional, organism-based"}, "Mus musculus [25]": {"test_system": "Mus musculus", "assay": "Antinociceptive activity against formalin-induced nociceptive behavior in C57BL6 mouse assessed as reduction in phase 1 hind paw flinching at 30 mg/kg, sc administered 60 mins prior to formalin challenge by formalin test", "assay_type": "functional, organism-based"}, "Rattus norvegicus [26]": {"test_system": "Rattus norvegicus", "assay": "Antinociceptive activity in Sprague-Dawley rat model of chronic constriction injury-induced neuropathic pain assessed as reduction in thermal hyperalgesia 60 mg/kg, sc by Von Frey test relative to control", "assay_type": "functional", "set-up": "scale not given: the % may be the effect or the level left"}, "Rattus norvegicus [27]": {"test_system": "Rattus norvegicus", "assay": "Antinociceptive activity in Sprague-Dawley rat model of chronic constriction injury-induced neuropathic pain assessed as reduction in mechanical hyperalgesia 60 mg/kg, sc by Von Frey test relative to control", "assay_type": "functional", "set-up": "scale not given: the % may be the effect or the level left"}, "Rattus norvegicus [28]": {"test_system": "Rattus norvegicus", "assay": "Reversal of chronic constriction injury-induced mechanical allodynia in Sprague-Dawley rat model of neuropathic pain at 60 mg/kg, sc measured up to 180 mins relative to control", "assay_type": "functional", "details": "time min <=180"}, "Rattus norvegicus [29]": {"test_system": "Rattus norvegicus", "assay": "Antinociceptive activity in Sprague-Dawley rat model of chronic constriction injury-induced neuropathic pain assessed as reduction in thermal hyperalgesia 30 mg/kg, sc by Von Frey test relative to control", "assay_type": "functional", "set-up": "scale not given: the % may be the effect or the level left"}, "[30]": {"assay": "Drug concentration in brain of Sprague-Dawley rat model of chronic constriction injury-induced neuropathic pain at 1 mg/kg, sc", "assay_type": "ADME, organism-based", "details": "in vivo, read-out: Ct"}, "[31]": {"assay": "Unbound drug concentration in plasma of Sprague-Dawley rat model of chronic constriction injury-induced neuropathic pain at 3 mg/kg, sc", "assay_type": "ADME, organism-based", "details": "in vivo"}, "[32]": {"assay": "Unbound drug concentration in plasma of Sprague-Dawley rat model of chronic constriction injury-induced neuropathic pain at 10 mg/kg, sc", "assay_type": "ADME, organism-based", "details": "in vivo"}, "[33]": {"assay": "Unbound drug concentration in plasma of Sprague-Dawley rat model of chronic constriction injury-induced neuropathic pain at 30 mg/kg, sc", "assay_type": "ADME, organism-based", "details": "in vivo"}, "[34]": {"assay": "Unbound drug concentration in brain of Sprague-Dawley rat model of chronic constriction injury-induced neuropathic pain at 1 mg/kg, sc", "assay_type": "ADME, organism-based", "details": "in vivo"}, "[35]": {"assay": "Unbound drug concentration in brain of Sprague-Dawley rat model of chronic constriction injury-induced neuropathic pain at 3 mg/kg, sc", "assay_type": "ADME, organism-based", "details": "in vivo"}, "[36]": {"assay": "Unbound drug concentration in brain of Sprague-Dawley rat model of chronic constriction injury-induced neuropathic pain at 10 mg/kg, sc", "assay_type": "ADME, organism-based", "details": "in vivo"}, "[37]": {"assay": "Induction of motor coordination impairment in Sprague-Dawley rat at 60 mg/kg, sc measured up to 180 mins by rotarod test", "assay_type": "organism-based", "details": "in vivo, 3 h"}, "[38]": {"assay": "Drug concentration in Sprague-Dawley rat plasma at 10 mg/kg, sc measured after 190 mins", "assay_type": "ADME, organism-based"}, "[39]": {"assay": "Drug concentration in Sprague-Dawley rat plasma at 60 mg/kg, sc measured after 190 mins", "assay_type": "ADME, organism-based"}},
  "note": "Calls of active or inactive are those of the source. No cut-off for these calls is given here.",
  "data": [
    {"smiles": "CC(C)C[C@@H](N)C(=O)Nc1ccc(-c2cnco2)c(OC(F)F)c1", "values": [
      {"measurement": "remaining at 10 min, 0.5 µM", "setting": "[1]", "result": 68, "unit": "%"},
      {"measurement": "Papp at 4 h", "setting": "[2]", "result": 96.7, "unit": "×10⁻⁶ cm/s"},
      {"measurement": "fraction unbound at 5 h, 10 µM", "setting": "[3]", "result": 0.038},
      {"measurement": "fraction unbound at 5 h, 10 µM", "setting": "[4]", "result": 0.041},
      {"measurement": "concentration at 2 h", "setting": "[5]", "result": 17.7, "unit": "µM"},
      {"measurement": "concentration at 2 h", "setting": "[6]", "result": 18.5, "unit": "µM"},
      {"measurement": "Kp", "setting": "[7]", "result": 1.04},
      {"measurement": "Activity", "setting": "[8]", "result": 1.4, "unit": "%"},
      {"measurement": "Activity", "setting": "[9]", "result": 7.6, "unit": "%"},
      {"measurement": "IC50", "setting": "[10]", "result": 120, "unit": "nM"},
      {"measurement": "IC50", "setting": "[11]", "result": 1930, "unit": "nM"},
      {"measurement": "IC50", "setting": "[12]", "result": 1060, "unit": "nM"},
      {"measurement": "IC50", "setting": "[13]", "result": 507, "unit": "nM"},
      {"measurement": "IC50", "setting": "[14]", "result": 428, "unit": "nM"},
      {"measurement": "IC50", "setting": "[15]", "result": 570, "unit": "nM"},
      {"measurement": "IC50", "setting": "Mu-type opioid receptor", "result": "> 30000", "unit": "nM"},
      {"measurement": "IC50", "setting": "[16]", "result": "> 30000", "unit": "nM"},
      {"measurement": "inhibition", "setting": "[17]", "result": 90, "unit": "%"},
      {"measurement": "inhibition", "setting": "[18]", "result": "Active"},
      {"measurement": "concentration", "setting": "[19]", "result": 1.2, "unit": "µM"},
      {"measurement": "concentration", "setting": "[20]", "result": 2.6, "unit": "µM"},
      {"measurement": "concentration", "setting": "[21]", "result": 9.1, "unit": "µM"},
      {"measurement": "concentration", "setting": "[22]", "result": 37, "unit": "µM"},
      {"measurement": "Activity", "setting": "Mus musculus [23]", "result": "Active"},
      {"measurement": "Activity", "setting": "Mus musculus [24]", "result": "Active"},
      {"measurement": "Activity", "setting": "Mus musculus [25]", "result": "Active"},
      {"measurement": "Activity", "setting": "Rattus norvegicus [26]", "result": 113, "unit": "%"},
      {"measurement": "Activity", "setting": "Rattus norvegicus [27]", "result": 45, "unit": "%"},
      {"measurement": "Activity", "setting": "Rattus norvegicus [28]", "result": 42, "unit": "%"},
      {"measurement": "Activity", "setting": "Rattus norvegicus [29]", "result": 90, "unit": "%"},
      {"measurement": "concentration", "setting": "[30]", "result": 0.35, "unit": "µM"},
      {"measurement": "Cp(f)", "setting": "[31]", "result": 0.02, "unit": "µM"},
      {"measurement": "Cp(f)", "setting": "[32]", "result": 0.22, "unit": "µM"},
      {"measurement": "Cp(f)", "setting": "[33]", "result": 1.04, "unit": "µM"},
      {"measurement": "Drug uptake(free)", "setting": "[34]", "result": 0.01, "unit": "µM"},
      {"measurement": "Drug uptake(free)", "setting": "[35]", "result": 0.03, "unit": "µM"},
      {"measurement": "Drug uptake(free)", "setting": "[36]", "result": 0.2, "unit": "µM"},
      {"measurement": "Activity", "setting": "[37]", "result": "Non-Toxic"},
      {"measurement": "concentration at 3.167 h", "setting": "[38]", "result": 7.4, "unit": "µM"},
      {"measurement": "concentration at 3.167 h", "setting": "[39]", "result": 84, "unit": "µM"}
    ]}
  ]
}
